From patent US6521620B1, “Bicyclic compounds capable of inhibiting tyrosine kinases of the epidermal growth factor receptor family” (Warner-Lambert Company, priority 1994, dated 2003) come the findings set out here.

Counter-ions that a name gives are not always drawn. Like-named read-outs stand apart in the source and are kept apart here.

The target in the test is T1, Human EGF receptor tyrosine kinase (Homo sapiens, UniProt P00533).
T1 construct: isolated from A431 human epidermoid carcinoma cells which overexpress EGF receptor; endogenous in cells; host or cells: A431 human epidermoid carcinoma cells; purified from the lysate on wheat germ agglutinin sepharose
T1 sequence (P00533 25-1210): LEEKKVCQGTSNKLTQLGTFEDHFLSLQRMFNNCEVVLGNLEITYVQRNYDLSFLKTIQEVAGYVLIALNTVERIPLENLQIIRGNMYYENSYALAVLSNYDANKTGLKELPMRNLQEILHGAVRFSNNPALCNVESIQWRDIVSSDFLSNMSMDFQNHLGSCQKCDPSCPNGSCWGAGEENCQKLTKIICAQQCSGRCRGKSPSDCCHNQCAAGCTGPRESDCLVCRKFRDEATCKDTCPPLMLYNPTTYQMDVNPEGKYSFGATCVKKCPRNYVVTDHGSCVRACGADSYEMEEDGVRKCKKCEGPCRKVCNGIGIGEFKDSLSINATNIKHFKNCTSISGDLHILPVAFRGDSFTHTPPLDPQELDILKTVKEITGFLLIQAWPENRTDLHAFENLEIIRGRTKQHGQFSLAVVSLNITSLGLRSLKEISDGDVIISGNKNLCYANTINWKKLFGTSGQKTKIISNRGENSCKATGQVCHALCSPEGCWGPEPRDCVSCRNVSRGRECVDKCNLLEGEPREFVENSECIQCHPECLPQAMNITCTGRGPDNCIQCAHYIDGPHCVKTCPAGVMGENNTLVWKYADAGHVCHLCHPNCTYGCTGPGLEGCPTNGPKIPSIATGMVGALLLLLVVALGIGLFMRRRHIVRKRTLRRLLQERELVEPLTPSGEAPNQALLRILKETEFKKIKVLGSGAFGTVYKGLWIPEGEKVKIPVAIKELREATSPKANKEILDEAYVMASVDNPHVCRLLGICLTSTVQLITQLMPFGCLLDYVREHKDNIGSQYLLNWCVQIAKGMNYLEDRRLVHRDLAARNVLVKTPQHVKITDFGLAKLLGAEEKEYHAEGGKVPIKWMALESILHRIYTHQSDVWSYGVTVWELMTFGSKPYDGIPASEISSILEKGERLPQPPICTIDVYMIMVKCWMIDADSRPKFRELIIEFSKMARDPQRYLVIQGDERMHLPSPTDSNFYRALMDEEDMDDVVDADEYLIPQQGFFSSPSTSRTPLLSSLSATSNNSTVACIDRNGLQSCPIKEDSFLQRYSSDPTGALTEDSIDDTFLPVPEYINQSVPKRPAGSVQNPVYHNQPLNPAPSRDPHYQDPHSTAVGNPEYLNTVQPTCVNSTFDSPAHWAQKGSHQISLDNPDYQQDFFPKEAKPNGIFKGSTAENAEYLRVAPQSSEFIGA
The test is described as follows: EGF receptor tyrosine kinase inhibition (phosphorylation of PLC-gamma 1 derived peptide). Format: biochemical. Here is the method: Purification of Epidermal Growth Factor Receptor Tyrosine Kinase—Human EGF receptor tyrosine kinase was isolated from A431 human epidermoid carcinoma cells which overexpress EGF receptor by the following methods. Cells were grown in roller bottles in 50% Delbuco's Modified Eagle and 50% HAM F-12 nutrient media (Gibco) containing 10% fetal calf serum. Approximately 10^9 cells were lysed in two volumes of buffer containing 20 mM 2-(4N-[2-hydroxyethyl]piperazin-1-yl)ethanesulfonic acid (hepes), pH 7.4, 5 mM ethylene glycol bis(2-aminoethyl ether) N,N,N′,N′-tetraacetic acid, 1% Triton X-100, 10% glycerol, 0.1 mM sodium orthovanadate, 5 mM sodium fluoride, 4 mM pyrophosphate, 4 mM benzamide, 1 mM dithiothreitol, 80 μg/mL aprotinin, 40 μg/mL leupeptin and 1 mM phenylmethylsulfonyl fluoride. After centrifugation at 25,000×g for 10 minutes, the supernatant was equilibrated for 2 h at 4° C. with 10 mL of wheat germ agglutinin sepharose that was previously equilibrated with 50 mM Hepes, […], 0.1% Triton X-100 and 150 mM NaCl, pH 7.5, (equilibration buffer). Contaminating proteins were washed from the resin with 1 M NaCl in equilibration buffer, and the enzyme was eluted with 0.5 M N-acetyl-1-D-glucosamine in equilibration buffer, followed by 1 mM urea. The enzyme was eluted with 0.1 mg/ml EGF.
The reaction was terminated by the addition of 2 mL of […] phosphoric acid and passed through a 2.5 cm phosphocellulose filter disc to bind the peptide. The filter was washed five times with 75 mM phosphoric acid and placed in a vial along with 5 mL of scintillation fluid (Ready gel Beckman).

The mark [1] stands for this setting: Table 1, values printed in μM, read-out: EGF Receptor Tyrosine Kinase Inhibition IC50.
[2] abbreviates: Table 1, values in nM, read-out: EGF Receptor Tyrosine Kinase Inhibition IC50.

For the compound `Nc1cc2ncnc(NCc3cccc(Br)c3)c2cn1` [Example 48, 7-Amino-4-(3-bromobenzylamino)pyrido[4,3-d]pyrimidine], the IC50 (usually the concentration that inhibits the measured activity by half) under setting [1] amounted to 1 µM.
As to `Nc1ccc(Nc2ncnc3cc(N)ncc23)cc1` [Example 18, 7-Amino-4-(4-aminoanilino)pyrido[4,3-d]pyrimidine], the IC50 under setting [2] was 0.173 µM.
As for `COc1ccccc1Nc1ncnc2cc(N)ncc12` [Example 16, 7-Amino-4-(2-methoxyanilino)pyrido[4,3-d]pyrimidine], the IC50 under setting [1] turned out to be 3.7 µM.
Consider `Nc1cc2ncnc(NCc3ccccc3N)c2cn1` [Example 42, 7-Amino-4-(2-aminobenzylamino)pyrido[4,3-d]pyrimidine], for which the IC50 under setting [2] came to 0.226 µM.
On to `Nc1cc2ncnc(NCc3ccc(Cl)cc3)c2cn1` [Example 46, 7-Amino-4-(4-chlorobenzylamino)pyrido[4,3-d]pyrimidine Mesylate], for which, under setting [1], the IC50 came out at 1.42 µM.
`CC(=O)Nc1cc2ncnc(NCc3ccccc3)c2cn1` [Example 54, 7-Acetylamino-4-benzylaminozpyrido[4,3-d]pyrimidine]: the IC50 under setting [2] was 0.1 µM.
Take `c1ccc(CNc2ncnc3cnccc23)cc1` [Example 62, 4-(Benzylamino)pyrido[3,4-d]pyrimidine]: under setting [1], the concentration for half-maximal inhibition (IC50) amounted to 6.1 µM.
In the case of `Brc1cccc(Nc2ncnc3ccsc23)c1` [Example 71, 4-(3-Bromoanilino)thieno[3,2-d]pyrimidine Hydrochloride], the 50% inhibitory concentration (IC50) came out at 0.011 µM.
For the compound `c1ccc(Nc2ncnc3ccncc23)cc1` [Example 10, 4-Anilinopyrido[4,3-d]pyrimidine], the half-maximal inhibitory concentration (IC50) under setting [1] was 6.1 µM.
Still for that read-out and setting: next, `CNc1ncc2c(NCc3ccccc3)ncnc2n1` [Example 69, 4-Benzylamino-7-methylaminopyrimido[4,5-d]pyrimidine]: 7 µM.
On to `Nc1cc2ncnc(Nc3ccc(Br)cc3)c2cn1` [Example 28, 7-Amino-4-(4-bromoanilino)pyrido[4,3-d]pyrimidine], for which, under setting [2], the concentration for half-maximal inhibition (IC50) was found to be 0.094 µM.
Take `Clc1ccc2ncnc(Nc3cccc(Br)c3)c2n1` [Example 5, 4-(3-Bromoanilino)-6-chloropyrido[3,2-d]pyrimidine]: under setting [1], the IC50 amounted to 1.9 µM.
Still for that read-out and setting: next, `CN(C)c1ccc2c(Nc3cccc(Br)c3)ncnc2n1` [Example 67, 4-(3-Bromoanilino)-7-dimethylaminopyrido[2,3-d]pyrimidine]: 6.1 µM.
As for `COc1ccc2ncnc(Nc3cccc(Br)c3)c2n1` [Example 9, 4-(3-Bromoanilino)-6-methoxypyrido[3,2-d]pyrimidine], the IC50 under setting [2] is 0.405 µM.
On to `Brc1cccc(Nc2ncnc3[nH]cnc23)c1` [Example 75, N^6-(3-Bromophenyl)adenine], for which the half-maximal inhibitory concentration (IC50) under setting [2] came to 0.055 µM.
For `c1ccc(Nc2ncnc3cnccc23)cc1` [Example 55, 4-Anilinopyrido[3,4-d]pyrimidine], the IC50 under setting [2] turned out to be 0.4 µM.
The same measure, in the same setting: next, `Nc1cc2ncnc(Nc3ccccc3)c2cn1` [Example 13, 7-Amino-4-anilinopyrido[4,3-d]pyrimidine]: 0.25 µM.
On to `Nc1cc2ncnc(Nc3cccc(Cl)c3)c2cn1` [Example 24, 7-Amino-4-(3-chloroanilino)pyrido[4,3-d]pyrimidine], for which the IC50 under setting [2] was determined as 0.123 µM.
For the compound `COc1cc2ncnc(Nc3cccc(Br)c3)c2cn1` [Example 37, 4-(3-Bromoanilino)-7-methoxypyrido[4,3-d]pyrimidine], the IC50 under setting [2] is 0.039 µM.
With `Nc1cc2ncnc(Nc3cccc(C(F)(F)F)c3)c2cn1` [Example 31, 7-Amino-4-(3-trifluoromnethylanilino)pyrido[4,3-d]pyrimidine], the IC50 under setting [2] was found to be 0.015 µM.
As for `Brc1cccc(Nc2ncnc3cccnc23)c1` [Example 3, 4-(3-Bromoanilino)pyrido[3,2-d]pyrimidine], the concentration for half-maximal inhibition (IC50) under setting [1] is 1.1 µM.
`Nc1cc2ncnc(Nc3ccccc3[N+](=O)[O-])c2cn1` [Example 21, 7-Amino-4-(2-nitroanilino)pyrido[4,3-d]pyrimidine]: the IC50 under setting [1] was 1.25 µM.
Turning to `Brc1cccc(Nc2ncnc3ccncc23)c1` [Example 11, 4-(3-Bromoanilino)pyrido[4,3-d]pyrimidine], under setting [2], the IC50 is 0.194 µM.
With `Nc1cc2ncnc(NCc3ccc(Br)cc3)c2cn1` [Example 49, 7-Amino-4-(4-bromobenzylamino)pyrido[4,3-d]pyrimidine], under setting [1], the IC50 worked out at 2.5 µM.
As for `Nc1cc2ncnc(Nc3ccccc3Br)c2cn1` [Example 26, 7-Amino-4-(2-bromoanilino)pyrido[4,3-d]pyrimidine], the 50% inhibitory concentration (IC50) under setting [2] came out at 0.241 µM.
As for `CN(C)c1cccc(CNc2ncnc3cc(N)ncc23)c1` [Example 43, 7-Amino-4-(3-dimethylaminobenzylamino)pyrido[4,3-d]-pyrimidine], under setting [1], the IC50 came out at 10 µM.
Same read-out and setting: next, `Nc1cc2ncnc(NCc3cccc(C(F)(F)F)c3)c2cn1` [Example 51, 7-Amino-4-(3-trifluoromethylbenzylamino)pyrido[4,3-d]pyrimidine]: 1.95 µM; `COc1cccc(CNc2ncnc3cc(N)ncc23)c1` [Example 45, 7-Amino-4-(3-methoxybenzylamino)pyrido[4,3-d]pyrimidine]: 2.87 µM.
The same measure, in the same setting: next, `Nc1cccc(Nc2ncnc3cc(N)ncc23)c1` [Example 17, 7-Amino-4-(3-aminoanilino)pyrido[4 3-d]pyrimidine]: 1.55 µM; `Nc1cc2ncnc(NCc3ccc(C(F)(F)F)cc3)c2cn1` [Example 52, 7-Amino-4-(4-trifluoromethylbenzylamino)pyrido[4,3-d]pyrimidine]: 8 µM.
For `Brc1cccc(Nc2ncnc3cnccc23)c1` [Example 56, 4-(3-Bromoanilino)pyrido[3,4-d]pyrimidine], the IC50 under setting [2] was found to be 0.11 µM.
For `CNc1cc2ncnc(Nc3cccc(Br)c3)c2cn1` [Example 33, 4-(3-Bromoanilino)-7-methylaminopyrido[4 3-d]pyrimidine], the concentration for half-maximal inhibition (IC50) (Table 1, values in pM, read-out: EGF Receptor Tyrosine Kinase Inhibition IC50) was 0.00013 µM.
Consider `Brc1cccc(Nc2ncnc3ncccc23)c1` [Example 63, 4-(3-Bromoanilino)pyrido[2,3-d]pyrimidine], for which the IC50 under setting [1] turned out to be 6.1 µM.
As to `c1ccc(CNc2ncnc3ccncc23)cc1` [Example 38, 4-Benzylaminopyrido[4,3-d]pyrimidine], the IC50 under setting [2] was 0.071 µM.
Consider `Nc1cc2ncnc(NCc3ccccc3Br)c2cn1` [Example 47, 7-Amino-4-(2-bromobenzylamino)pyrido[4,3-d]pyrimidine], for which, under setting [1], the 50% inhibitory concentration (IC50) was found to be 1.67 µM.
Take `CNc1cc2ncnc(N(C)c3cccc(Br)c3)c2cn1` [Example 35, 4-[N-(3-Bromophenyl)-N-methylaminol-7-methylaminopyrido 4,3-d]pyrimidine]: the IC50 under setting [2] was 0.0031 µM.
The same measure, in the same setting: next, `Nc1cc2ncnc(Nc3cccc(O)c3)c2cn1` [Example 14, 7-Amino-4-(3-hydroxyanilino)pyrido[4,3-d]pyrimidine]: 0.07 µM.
As for `Nc1cc2ncnc(NCc3cccc([N+](=O)[O-])c3)c2cn1` [Example 44, 7-Amino-4-(3-nitrobenzylamino)pyrido[4,3-d]pyrimidine], the half-maximal inhibitory concentration (IC50) under setting [1] was 10 µM.
For the compound `Fc1cc2c(Nc3cccc(Br)c3)ncnc2cn1` [Example 57, 4-(3-Bromoanilino)-6-fluoropyrido[3,4-d]pyrimidine], under setting [2], the 50% inhibitory concentration (IC50) was determined as 0.124 µM.
On to `c1ccc(Nc2ncnc3cccnc23)cc1` [Example 1, 4-Anilinopyrido[3,2-d]pyrimidine Mesylate], for which the IC50 under setting [1] worked out at 8 µM.
In turn, `c1ccc(CNc2ncnc3cccnc23)cc1` [Example 2, 4-Benzylaminopyrido[3,2-d]pyrimidine] had an IC50 of 3.6 µM.
